Experimental data reported in the NIST ThermoML archive (doi:10.1007/s10765-008-0549-z).

Conditions: Liquid, Hot wire method

COCCOC [1,2-dimethoxyethane]
Conditions	thermal conductivity [W/m/K]
245.46 K, 104.6 kPa	0.1648
245.69 K, 30045 kPa	0.1742
245.95 K, 9806.6 kPa	0.1669
245.96 K, 30103 kPa	0.1746
246.06 K, 5008.2 kPa	0.1665
246.06 K, 20070 kPa	0.1711
246.24 K, 20007 kPa	0.1706
246.49 K, 105.9 kPa	0.165
246.52 K, 5028.5 kPa	0.1666
246.69 K, 10018 kPa	0.1683
246.75 K, 10005 kPa	0.1682
246.79 K, 5010 kPa	0.1662
247.52 K, 103.3 kPa	0.1647
255.91 K, 20016 kPa	0.1675
256.02 K, 102.5 kPa	0.1606
256.02 K, 30007 kPa	0.1706
256.1 K, 10040 kPa	0.1643
256.21 K, 5070.2 kPa	0.1623
256.75 K, 30014 kPa	0.1707
256.81 K, 20002 kPa	0.1679
256.83 K, 10040 kPa	0.1642
256.9 K, 5065.5 kPa	0.1625
256.95 K, 102.5 kPa	0.161
257.48 K, 5064.5 kPa	0.1625
257.56 K, 20022 kPa	0.1674
257.58 K, 102.3 kPa	0.1607
257.62 K, 10048 kPa	0.1643
257.66 K, 30002 kPa	0.1708
266.15 K, 10003 kPa	0.1617
266.18 K, 5017.9 kPa	0.1601
266.19 K, 30009 kPa	0.1688
266.26 K, 101.3 kPa	0.158
266.26 K, 20003 kPa	0.1654
266.32 K, 10011 kPa	0.1618
266.41 K, 100.9 kPa	0.158
266.58 K, 5037.6 kPa	0.1598
266.87 K, 20013 kPa	0.165
266.95 K, 30000 kPa	0.1684
267.11 K, 30013 kPa	0.1683
267.35 K, 20003 kPa	0.1653
267.37 K, 10021 kPa	0.1617
267.5 K, 101.1 kPa	0.1578
267.84 K, 5027 kPa	0.1598
275.68 K, 10024 kPa	0.1585
275.72 K, 5003.3 kPa	0.1567
276.21 K, 20024 kPa	0.1624
276.34 K, 101.8 kPa	0.1547
276.45 K, 30012 kPa	0.1657
276.49 K, 100.9 kPa	0.1543
276.52 K, 20015 kPa	0.1623
276.94 K, 5006 kPa	0.1567
277.11 K, 30008 kPa	0.1654
277.29 K, 10005 kPa	0.1584
277.31 K, 30012 kPa	0.1653
277.53 K, 20015 kPa	0.1623
277.55 K, 5005.5 kPa	0.1565
277.95 K, 10000 kPa	0.1585
278.62 K, 101.1 kPa	0.1539
285.8 K, 10010 kPa	0.1551
286.18 K, 5012.4 kPa	0.1531
286.23 K, 101.5 kPa	0.1512
286.4 K, 30001 kPa	0.1626
286.51 K, 20013 kPa	0.159
286.67 K, 30009 kPa	0.1625
286.8 K, 20011 kPa	0.159
287.06 K, 101.3 kPa	0.1509
287.07 K, 30006 kPa	0.1621
287.28 K, 10001 kPa	0.1549
287.46 K, 5010.5 kPa	0.153
287.68 K, 20035 kPa	0.1586
288.14 K, 10002 kPa	0.1545
288.62 K, 100.9 kPa	0.1504
288.65 K, 5009.1 kPa	0.1525
294.52 K, 10026 kPa	0.1516
294.53 K, 20008 kPa	0.1566
294.55 K, 30012 kPa	0.1589
294.64 K, 10027 kPa	0.1527
294.68 K, 106.8 kPa	0.1466
294.68 K, 20036 kPa	0.1566
294.75 K, 104.2 kPa	0.1463
294.83 K, 5021.1 kPa	0.15
294.85 K, 10037 kPa	0.1514
294.89 K, 30004 kPa	0.1609
294.98 K, 5020.1 kPa	0.1495
295 K, 30018 kPa	0.1595
295.07 K, 5014 kPa	0.149
295.11 K, 20026 kPa	0.1557
295.24 K, 20010 kPa	0.1569
295.28 K, 30016 kPa	0.1598
295.32 K, 30006 kPa	0.16
295.36 K, 101.9 kPa	0.1467
295.36 K, 20006 kPa	0.1558
295.37 K, 10024 kPa	0.1515
295.38 K, 104.3 kPa	0.1474
295.83 K, 10044 kPa	0.1522
296 K, 5027.1 kPa	0.1498
314.6 K, 104.5 kPa	0.1394
314.65 K, 105.6 kPa	0.1386
314.79 K, 30008 kPa	0.1522
314.83 K, 20003 kPa	0.1491
314.84 K, 5010.3 kPa	0.1415
314.87 K, 10003 kPa	0.1443
314.9 K, 107.1 kPa	0.1402
314.95 K, 20016 kPa	0.1476
315.06 K, 10017 kPa	0.144
315.14 K, 30010 kPa	0.1529
315.17 K, 10013 kPa	0.1447
315.23 K, 5018.6 kPa	0.1424
315.26 K, 30008 kPa	0.1519
315.27 K, 105.4 kPa	0.1395
315.3 K, 20008 kPa	0.1484
315.31 K, 20001 kPa	0.1483
315.42 K, 10012 kPa	0.1445
315.46 K, 5010.3 kPa	0.1419
315.51 K, 100.6 kPa	0.1391
334.53 K, 10006 kPa	0.1361
334.58 K, 102.1 kPa	0.132
334.58 K, 5005.9 kPa	0.1342
334.65 K, 5011.8 kPa	0.1347
334.69 K, 90 kPa	0.132
334.76 K, 10004 kPa	0.1366
334.94 K, 10015 kPa	0.1373
334.98 K, 5008.9 kPa	0.1344
335.06 K, 101.6 kPa	0.1322
335.31 K, 10008 kPa	0.1374
335.39 K, 5011.5 kPa	0.1347
335.53 K, 105.6 kPa	0.1314
335.59 K, 10015 kPa	0.1366
335.96 K, 5018 kPa	0.1343
336.14 K, 105.6 kPa	0.1319

Cc1ccccc1 [toluene]
Conditions	thermal conductivity [W/m/K]
274.65 K	0.1387
275.4 K	0.1382
275.95 K	0.1384
276.31 K	0.138
287.33 K	0.1345
288.72 K	0.1336
289.65 K	0.1335
294.45 K	0.1318
294.69 K	0.1318
295.08 K	0.1321
295.47 K	0.1314
295.79 K	0.132
297.45 K	0.1318
298.6 K	0.1313
300.43 K	0.1303
307.66 K	0.1287
308.62 K	0.1283
310.22 K	0.1274
314.69 K	0.1261
314.74 K	0.1264
315.55 K	0.1253
315.85 K	0.1254
316.7 K	0.1251
317.94 K	0.1251
319.32 K	0.1245
319.96 K	0.1245
327.65 K	0.1225
329.5 K	0.1214
330.77 K	0.1209
338.39 K	0.1188
339.77 K	0.1181
340.62 K	0.1181
355.63 K	0.114
355.95 K	0.114
357.02 K	0.1137
375.26 K	0.1086
375.71 K	0.1087
